Data from patent US20030054332A1, “Markers for evaluating estrogenic activity” (priority 2001, published 2003).

Experiments:
[1] = tested on: cyclin A1 in MCF-7 (mammary cancer cell line); assay: Cyclin A1 expression and induction, MCF-7; format: cell-based; parameters: key: (+) indicates detectable cyclin A1; (−) indicates no detectable cyclin A1 expression
Text: (§1) Cyclin A1 expression and the effect of estradiol on expression in a number of immortalized and primary cells lines was further evaluated as described above.

[2] = tested on: VEGF mRNA in VE-ERα cells; assay: VEGF mRNA expression in VE-ERα cells by RNAse protection analysis; format: cell-based, human; settings: VE-ERα cells treated with estrogen; RNAse protection analysis (FIG. 1, 100 nM)
Experimental: Estrogen receptor α (ERα)-enhanced vascular endothelial cells were prepared by infecting primary vascular endothelial cells with a retrovirus expressing human papillomavirus E6/E7, which leads to cellular immortalization. The retrovirus expression vector LXSN16E6E7 contains the immortalizing oncogenes E6 and E7 from human papilloma virus type 16 and a neomycin resistance gene. (Halbert, C. L., Demers, F. W., and Galloway, D. A. 1991. J Virol. 65: 473-478 (1)). This vector was transfected into PA317 cells, an amphotrophic packaging cell line, by calcium phosphate precipitation. Stably clonal lines were established by G418 selection. A negative control line expressing the empty retrovirus LXSN was established. Viruses produced by the clonal lines of PA317 were used to infect second passage primary human aortic endothelial cells obtained from Cell Applications, Inc., San Diego, Calif. Following infection and selection with G418, the LXSN infected cells ceased growth after approximately 7 passages where the LXSN16E6E7 infected cells were growth extended beyond 20 passages.
The cells expressed the expected endothelial markers. The levels of ERα were increased by infection of the cells with a retrovirus that expresses recombinant ERα (Green, S. et al, Nature 1986 320: 134-137). […]

cyclin A1 in Osteoblasts = assay: Cyclin A1 expression and induction, osteoblasts; format: cell-based; parameters: key: (+) indicates detectable cyclin A1; (−) indicates no detectable cyclin A1 expression; settings: immortalized human cells
Text: as §1

[3] = tested on: cyclin A1 in Primary vascular smooth muscle cells; assay: Cyclin A1 expression and induction, primary vascular smooth muscle cells; format: cell-based; parameters: key: (+) indicates detectable cyclin A1; (−) indicates no detectable cyclin A1 expression
Text: as §1

[4] = tested on: cyclin A1 in Primary vascular endothelial cells; assay: Cyclin A1 expression and induction, primary vascular endothelial cells; format: cell-based; parameters: key: (+) indicates detectable cyclin A1; (−) indicates no detectable cyclin A1 expression
Text: as §1

[5] = tested on: ERE luciferase reporter in Chinese hamster ovary cells expressing transfected ERα; assay: ERE transactivation (ERE luciferase reporter in Chinese hamster ovary cells expressing transfected ERα); format: cell-based
Experimental: (§2) In a further experiment, compounds known to have estrogen-like activity based on ER binding and ERE transactivation (ERE luciferase reporter in Chinese hamster ovary cells expressing transfected ERα) were evaluated. […] In order to confirm that these active compounds were working in an ER dependent manner, VE103-ERα cells were treated with a single dose of compound and increasing doses of ICI 164,384. […] All results are presented as percent of estrogen. PGI2 synthase numbers were based on EC50 from a 5-point dose response like that shown for estrogen in FIG. 5.

[6] = tested on: cyclin A1 in ERβ-enhanced vascular endothelial cells; assay: Cyclin A1 RNase protection, ERβ-enhanced vascular endothelial cells; format: cell-based, human; settings: 100 nM E2, 1 μM ICI 164384, 10 nM DES
Experimental: (§3) In a similar experiment, RNase protection assays were performed using estrogen receptor α- and estrogen receptor β-enhanced vascular endothelial cells. […] The results are presented in FIGS. 4A and 5B, which show the levels of various cyclins in estrogen receptor α- and estrogen receptor β-enhanced cells, respectively. Arrows indicate mRNA for each indicated cyclin. […] Cyclin A1 is the only cyclin in the panel increased by estradiol treatment.
as §1

[7] = tested on: cyclin A1 in Endometrial epithelial cells; assay: Cyclin A1 expression and induction, endometrial epithelial cells; format: cell-based; parameters: key: (+) indicates detectable cyclin A1; (−) indicates no detectable cyclin A1 expression; settings: immortalized human cells
Text: as §1

VE-ERα cells = assay: Incyte UniGEM estrogen regulated gene profile of VE-ERα cells; format: cell-based, human; settings: VE-ERα cells treated for 6 hours vs ethanol
Experimental: The Incyte UniGEM technology was used to survey a large panel of genes and to establish the estrogen regulated gene profile of the VE-ERα cells. VE-ERα cells were treated for 6 hours with 17-β estradiol or vehicle control (ethanol). Poly (A) RNA was isolated and this RNA was used to synthesize Cy3 or Cy5 labeled cDNA for simultaneous probing of Incyte UniGem V. Reciprocal labeling was done and two UniGems were probed (for one GEM the estradiol probe was labeled with Cy3 and ethanol probe with Cy5 and this labeling was reversed for the second GEM). UniGem V contains approximately 8500 human sequences including both known genes and ESTs. More than 20 genes were identified which were regulated more than 2 fold on both UniGEMs (Table I, indicated as UniGem. The sequence indicated in Table I with RF were identified by RNA fingerprinting, a more stringent version of differential display. RNA fingerprinting is based upon the use of arbitrary primers and primer combinations to carry out PCR amplifications from cDNA populations derived from cells or tissues of interest. The process generates a series of radioactively-labeled fragments which can be resolved by PAGE and visualized by autoradiography. (Mathieu-Daude, et al. Methods Enzymol 1999;303:309; Stone, et al., Nucleic Acids Res 1994 Jul 11;22(13):2612-8.)

[8] = tested on: prostacyclin I2 synthase in VE-ERα cells; assay: Estrogen treatment time course, RNase protection analysis of prostacyclin I2 synthase in VE-ERα cells; format: cell-based, human; settings: at 24 hours
Experimental: This step is not necessary with genes identified by the UniGem where an estrogen treatment time course was performed. RNA was isolated and RNase protection analysis was used to determine estrogen responses (FIG. 2). All 20 of the genes examined were confirmed to be regulated to a higher fold modulation at 24 hours than the 6 hours used for the UniGem experiment.
The genes identified were relevant genes for vascular endothelial cells and in some cases consistent with the known effects of estrogen in the cardiovascular system. […] This enzyme is required for that last step in the synthesis of prostacyclin (PGI2). […] Another relevant gene was natriuretic peptide receptor B (NPR-B) which is the receptor for C-type natriuretic peptide (CNP), an endothelium dependent vasodilator.

[9] = tested on: estrogen-regulated genes in VE-ERα cells; assay: Multigene RNase protection assay (RPA) with VE-ERα cells; format: cell-based, human; settings: for induction of expression of estrogen-regulated genes / effect on basal gene expression: 5 dose 0.1 nM-1000 nM for 24 hours
Text: Another preferred assay is an RNase protection assay (RPA), which can be used to examine a panel of genes identified as estrogen-regulated in VE-ERα cells. The RPA is described in Gilman, 1993, In Current Protocols in Molecular Biology, Vol. 1 (Ausubel, F. M., R. Brent, R, E. Kingston, D. D. Moore, J. G. Seidman, J. A. Smith and K. Stuhl, eds.) pp. 4.7.1-4.7.8, John Wiley and Sons, Inc., New York, incorporated herein by reference in its entirety. Within this assay, which may be performed according to standard protocols, multiple probes can be used in a single reaction that requires as little as 1 μg of total RNA, resulting in high information content and a molecule profile for each compound on ERα. regulated gene expression in vascular endothelial cells. The RPA assay is very sensitive and is therefore able to detect low copy messages and distinguish low fold modulations typical of estrogen. This approach has a number of advantages over a reporter assay. The endogenous genes in the multigene assay will contain all endogenous gene regulatory elements and will not be restricted to activation occurring through an ERE element. Since VE-ERα cells are human cells that have been characterized and determined to maintain endothelial specific phenotypic markers and functions, tissue selective ER regulation can be investigated.
An RNase protection assay (RPA) was used to examine a panel of genes identified as estrogen-regulated in VE-ERα cells.
as §2

[10] = tested on: cyclin A1 in Vascular endothelial cells; assay: Cyclin A1 expression and induction, vascular endothelial cells; format: cell-based; parameters: key: (+) indicates detectable cyclin A1; (−) indicates no detectable cyclin A1 expression; settings: immortalized human cells
Text: as §1

[11] = tested on: cyclin A1 in Vascular smooth muscle cells; assay: Cyclin A1 expression and induction, vascular smooth muscle cells; format: cell-based; parameters: key: (+) indicates detectable cyclin A1; (−) indicates no detectable cyclin A1 expression; settings: immortalized human cells
Text: as §1

[12] = tested on: cyclin A1 in ERα-enhanced vascular endothelial cells; assay: Cyclin A1 RNase protection, ERα-enhanced vascular endothelial cells; format: cell-based, human; settings: for cyclin A1 mRNA (in words): ERα-enhanced cells, 100 nM E2, 1 μM ICI 164384, 10 nM DES
Experimental: RNA was prepared using standard methods and RNase protection experiments were performed to evaluate the time course of cyclin A1 induction.
as §3, §1

MCF-7 cells = assay: Estrogen regulation of marker genes in MCF-7 cells; format: cell-based

C[C@]12CC[C@@H]3c4ccc(O)cc4CC[C@H]3[C@@H]1CC[C@@H]2O [17-β-estradiol] was tested, and the “Cyclin A1 expression, Estradiol” value [1] was “−”, the “expression of vascular endothelial growth factor (VEGF) mRNA” value [2] was “increased three fold” and the “Cyclin A1 expression, Estradiol” value (cyclin A1 in Osteoblasts) was “−”. The “Cyclin A1 expression, Estradiol” value [3] was “−”, the “Cyclin A1 expression, Estradiol” value [4] was “+” and the ERE transactivation [5] was 100% of estrogen. The “cyclin A1 mRNA (in words)” value [6] was “induction of cyclin A1 mRNA can occur”, the “Cyclin A1 expression, Estradiol” value [7] was “+” and the “regulation of more than 20 genes on both UniGEMs” value (VE-ERα cells) was “more than 2 fold”. The “prostacyclin I2 synthase upregulation” value [8] was 4 fold, the “induction of expression of estrogen-regulated genes” value (shortened to “induction”) [9] was “induced expression” and the “PG I2 synthase” value ([9]; VE-ERα Cells, based on EC50 from a 5-point dose response) was 100% of estrogen. For the same molecule, the “Cyclin A1 expression, Estradiol” value [10] was “+”, the “Cyclin A1 expression, Estradiol” value [11] was “−” and the “time to increase of cyclin A1 mRNA” value ([12]; 100 nM 17-β-estradiol vs 0.1% ethanol) was at most 3 h. For the same molecule, the “cyclin A1 mRNA (in words)” value [12] was “induction of cyclin A1 mRNA can occur”, the “regulation of ATP sulfurylase/APS kinase, podocalyxin” value (MCF-7 cells) was “found to be regulated by estrogen” and the regulation of clusterin (MCF-7 cells) was “not regulated by estrogen in a similar fashion”. The “regulation of prostacyclin I2 synthase and natriuretic peptide receptor B (NPR-B)” value (MCF-7 cells) was “not regulated by estrogen”.

In the case of CC/C(=C(\c1ccccc1)c1ccc(OCCN(C)C)cc1)c1ccccc1 [tamoxifen], the “induction” value [9] is reported as “showed no clear induction of any of the genes”.

With CC/C(=C(/CC)c1ccc(O)cc1)c1ccc(O)cc1 [DES, diethylstilbestrol] the “cyclin A1 mRNA (in words)” value [6] was “mimics the estradiol effect” and the “cyclin A1 mRNA (in words)” value [12] was “mimics the estradiol effect”.

O=C(c1ccc(OCCN2CCCCC2)cc1)c1c(-c2ccc(O)cc2)sc2cc(O)ccc12 [Raloxifene] was tested, and the “effect on basal gene expression” value [9] was “repressing rather than inducing gene expression” and the “induction” value [9] was “showed no clear induction of any of the genes”.

CCCCN(C)C(=O)CCCCCCCCCC[C@@H]1Cc2cc(O)ccc2[C@H]2CC[C@]3(C)[C@@H](O)CC[C@H]3[C@H]12 [ICI 164,384] was tested, and the “cyclin A1 mRNA (in words)” value [6] was “inhibits this response”, the “effect on basal gene expression” value [9] was “lowered basal expression of some genes at higher concentrations” and the “induction” value [9] was “showed no induction of gene expression”. For the same molecule, the “inhibition of gene activation by active compounds” value ([9]; VE103-ERα cells, single dose of compound and increasing doses of ICI 164,384) was “able to inhibit competitively the activation of these genes” and the “cyclin A1 mRNA (in words)” value [12] was “inhibits this response”.
